According to BindingDB's records for doi:10.1016/s0960-894x(99)00495-3 (Tokyo University of Pharmacy & Life Science, 1999):

Test: Compound was evaluated for inhibition of PNP-catalyzed inosine […] in Cellulomonas sp

SMILES | IC50 [nM]
Nc1nc2c(ncn2CCCCC(F)(F)P(=O)(O)O)c(=O)[nH]1 [9-(5',5'-difluoro-5'-phosphonopentyl)guanine] | 540
O=c1[nH]cnc2c1ncn2CC[C@@H]1C[C@H]1C(F)(F)P(=O)(O)O [(Difluoro-{(1R,2S)-2-[2-(6-oxo-1,6-dihydro-purin-9-yl)-ethyl]-cyclopropyl}-methyl)-phosphonic acid] | 70
Nc1nc2c(ncn2CC[C@@H]2C[C@H]2C(F)(F)P(=O)(O)O)c(=O)[nH]1 [({(1R,2S)-2-[2-(2-Amino-6-oxo-1,6-dihydro-purin-9-yl)-ethyl]-cyclopropyl}-difluoro-methyl)-phosphonic acid] | 390
O=c1[nH]cnc2c1ncn2C[C@@H]1COC[C@@H]1CC(F)(F)P(=O)(O)O [{1,1-Difluoro-2-[(3R,4R)-4-(6-oxo-1,6-dihydro-purin-9-ylmethyl)-tetrahydro-furan-3-yl]-ethyl}-phosphonic acid] | 35
O=c1[nH]cnc2c1ncn2C[C@H]1COC[C@@H]1CC(F)(F)P(=O)(O)O [{1,1-Difluoro-2-[(3R,4S)-4-(6-oxo-1,6-dihydro-purin-9-ylmethyl)-tetrahydro-furan-3-yl]-ethyl}-phosphonic acid] | 37
